Patent US20140309171A1, “MARKER FOR BLOOD COAGULATION” (Universite Catholique De Louvain, priority 2011, published 2014)
“Also recorded” adds a separate entry of the source.

Assays:
Format in all cases: cell-based
[1] = system: cofilin Ser3 phosphorylation; experiment: Western blot of cofilin Ser3 phosphorylation in human platelets; details: 0.1 U/ml thrombin, 10 μM STO-609, 10 min after thrombin exposure
Protocol: (§1) Washed human platelets (used in in vitro studies). Platelets were obtained from adult healthy volunteers in accordance with the Ethics Commission of our institution (Commission d'Ethique Biomédicale Hospitalo-Facultaire, Université catholique de Louvain). Whole blood was collected with butterfly needle 21G into Sodium Citrate 1:10 solution (S-monovette). Platelet-rich plasma (PRP) was obtained by 15 min centrifugation at 330 g. The platelets pellet was then washed in Tyrode modified buffer (135 mM NaCl, 12 mM NaHCO3, 1 mM Sodium Citrate, 2.9 mM KCl, 0.3 mM Na2HPO4, 1 mM MgCl2, 5 mM D-glucose, 10 mM Hepes, 0.35% bovine serum albumin (BSA), pH 7.4 at 37° C.) and resuspended to a density of 2.5 10^5 platelets/μl for the measurement of intracellular Ca^2+ or platelet aggregation. […]
(§2) Proteins were separated as described (Miranda et al. 2010. J Clin Invest 103(6): 879-887). […] Bound antibodies were detected by enhanced chemiluminescence (Thermofisher). […] Band intensities were quantified by scanning and processing image intensities with the program ImageJ (1.33 for Mac OS X). The quantification of immunoblots presented in results was obtained after normalization using the internal loading control.

[2] = system: myosin light chain (MLC) Ser 19 phosphorylation; experiment: Western blot of MLC Ser19 phosphorylation in human platelets; details: 0.1 U/ml thrombin, pre-incubation with STO-609
Protocol: as §1, §2

[3] = system: activated conformation of αIIbβ3 on human platelets; experiment: Flow cytometry, PAC-1 binding; details: 0.025 U/ml thrombin, 10 μM STO-609
Protocol: (§3) Flow cytometric analysis was performed on a FACScan (Becton Dickinson). Washed human platelets (2·10^5 platelets/μl) were pre-incubated with DMSO/STO-609 for 2 min and then treated with or without thrombin (0.025 U/ml) in the presence of excessive amounts of FITC-conjugated monoclonal antibody (anti-CD62P (BD Biosciences) or PAC-1 (BD Biosciences)) at room temperature. The samples were then fixed at 4° C. for 30 min with 2% paraformaldehyde. The levels of P-selectin expression and PAC1 binding were expressed as the percentages of cells positive for anti-CD62P and PAC-1, respectively. The negative cut-off for each antibody was set using resting platelets that gave less than 5% of cells positive for binding of anti-CD62P or PAC-1. In addition to aggregation measurements, we examined by flow cytometry STO-609 effects on PAC-1 binding, an antibody specific for the activated conformation of αIIbβ3. Platelets were activated by 0.025 U/ml thrombin in the absence or presence of 10 μM STO-609.

[4] = system: VASP Thr 278 phosphorylation; experiment: Western blot of VASP Thr278 phosphorylation in human platelets; details: 0.1 U/ml thrombin, pre-incubation with STO-609
Protocol: as §1, §2

[5] = system: intracellular Ca2+ in human platelets; experiment: Cytosolic Ca2+ measurement in fluo-3-loaded platelets; details: 10 μM STO-609, 0.1 U/ml thrombin, 1 mM extracellular Ca2+
Protocol: Platelets pelleted from the platelet-rich plasma were suspended in Ca^2+-free modified Tyrode's buffer and then incubated with 3 μM flou-3/acetoxymethyl ester (Santa Cruz Biotechnology) at 37° C. for 30 min. Probenecid 2.5 mM (Sigma-Aldrich) was added to the buffer throughout the experiments to prevent leakage of the dye. After 2 washings, fluo-3-loaded platelets were suspended in modified Tyrode's buffer at a concentration of 2 10^7 platelets/ml. They were then pre-incubated with 10 μM STO-609 in the presence of 1 mM extracellular Ca^2+ with stirring at 37° C. for 2 min before the addition of thrombin (0.1 U/ml). Fluorescence (excitation 505 nm, emission 530 nm) was measured with a spectrophotometer (AMINCO SPF500). Ca^2+ concentration as estimated as follows: Kd* (F−Fmin)/(Fmax−Fmin), where the Kd of Fluo-3 is ([…] at 37° C.). The minimal fluorescence (Fmin) is the fluorescence in the absence of Ca^2+ and Fmax is the fluorescence determined with ionomycin 1 μM.

[6] = system: Ser79 acetyl-CoA carboxylase (ACC) phosphorylation in human platelets; experiment: Western blot of phosphorylated (Ser79) ACC in human platelets; details: 10 μM STO-609, 0.1 U/ml thrombin
[7] = system: TXB2 formation in human platelets; experiment: Thromboxane B2 assay in platelet supernatants; details: 10 μM STO-609, 0.1 U/ml thrombin for 5 min
Protocol: After 2 min pre-incubation with 10 μM STO-609 or DMSO, washed platelets were treated with 0.1 U/ml thrombin for 5 min. Negative controls corresponded to platelets activated by thrombin in the presence of 1 mM acetylsalicylic acid (ASA). Platelet suspensions were pelleted (quick speed), and TXB2 in the supernatants was assayed according to the manufacturers instructions (Enzo Life Sciences).

[8] = system: P-selectin (CD62P) on human platelet surface; experiment: Flow cytometry, P-selectin (CD62P) exposure, α-granule release; details: 0.025 U/ml thrombin, 10 μM STO-609
Protocol: as §3, with “addition, the effect of STO-609 on α-granule release was determined” for “addition to aggregation measurements, we examined”, “measuring the exposure” for “flow cytometry STO-609 effects”, “platelet surface” for “PAC-1 binding, an antibody specific for the activated conformation”, “P-selectin (CD62P).” for “αIIbβ3. Platelets were activated by 0.025 U/ml thrombin in the absence or presence of 10 μM STO-609.”

Structure (SMILES): O=C(O)c1ccc2c3c1cccc3c(=O)n1c3ccccc3nc21 [STO-609]
- thrombin-induced cofilin phosphorylation, effect of pre-incubation [1]: significantly decreased; also recorded: prevents
- thrombin-induced MLC phosphorylation, effect of pre-incubation [2]: decreased significantly; also recorded: prevents
- PAC-1 binding in response to thrombin [3]: significantly inhibited
- thrombin-induced VASP phosphorylation on Thr 278, effect of pre-incubation [4]: prevents
- rise in Ca2+ concentration in response to thrombin [5]: did not modify
- AMPK activation, as judged by phosphorylation of downstream Ser79 acetyl-CoA carboxylase (ACC) [6]: markedly reduced
- thrombin-induced TXB2 formation [7]: not affect
- CD62P detection per platelet in response to thrombin (α-granule release) [8]: significantly inhibited; also recorded: prevents
